Measured values reported in patent US4212862A, “O,O-Diaryl-1-acyloxy-2,2,2-trichloroethylphosphonates and fungicides based thereon” (priority 1978, dated 1980).
Values joined by “and” are separate entries in the source; they are usually repeats but may differ in a detail not shown here. Equal entries are not always repeated. Where two headings read alike, the source gives them in different places.

Tests used:
[1] = system: stalk rust of wheat (Puccinia graminis); format: in vivo
[2] = Acute peroral toxicity for warm-blooded animals (LD50, LD90); format: in vivo, white mice; conditions: mouse, in vivo, po, Table 2; peroral; read-out: LD50 for white mice
Protocol: Toxicity (LD50) was evaluated on males and females of white mice with peroral administration of the compounds. A portion of the test compound was mixed with the emulsifier Twin-20 and diluted with distilled water to the required working concentration. Administration of the preparation was effected by means of a metal probe and syringe directly into the stomach of test animals 2-3 hours after feeding. The tests were performed using several doses, 6 animals per each dose. Subsequent observation was effected for two weeks.

[3] = system: stalk rust (Puccinia graminis f. tritici); format: in vivo; conditions: in vivo

Row | SMILES | Percentage of injury lowered ([1]; in vivo) | LD50 at 336 h [2] [mg/kg] | Percentage of plants injured with rust, 1-st evaluation [3] [%] | Percentage of plants injured with rust, 2-nd evaluation [3] [%] | Weight of 1,000 grains [3] [g] | Yield [3] [c/ha] | Percentage of injury lowered ([1]; at a concentration of 0.02%, sprayed 3 days before inoculation) [%] | Percentage of injury lowered ([1]; at a concentration of 0.1%, sprayed 3 days before inoculation) [%]
1 | CCCC(=O)OC(C(Cl)(Cl)Cl)P(=O)(Oc1ccccc1)Oc1ccccc1 (stereo not drawn) [III] | 68% and 51% | > 500 | 0.5 | 7.0 | 18.4 | 14.00 | – | –
2 | CCC(=O)OC(C(Cl)(Cl)Cl)P(=O)(Oc1ccccc1)Oc1ccccc1 (stereo not drawn) [II] | 78% and 63% | > 1000 | 0.5 | 11.0 | 16.5 | 11.50 | – | –
3 | CCCCCCC(=O)OC(C(Cl)(Cl)Cl)P(=O)(Oc1ccccc1)Oc1ccccc1 (stereo not drawn) [IV] | 98% and 74% | > 1000 | 0.5 | 6.5 | 23.8 | 20.00 | – | –
4 | CCCC(=O)OC(C(Cl)(Cl)Cl)P(=O)(Oc1ccccc1C)Oc1ccccc1C (stereo not drawn) [IX] | – | > 1000 | – | – | – | – | – | –
5 | CCC(=O)OC(C(Cl)(Cl)Cl)P(=O)(Oc1ccccc1C)Oc1ccccc1C (stereo not drawn) [VIII] | 96% and 76% | > 1000 | 0.5 | 8.5 | 15.3 | 10.15 | – | –
6 | CC(=O)OC(C(Cl)(Cl)Cl)P(=O)(Oc1ccccc1C)Oc1ccccc1C (stereo not drawn) [VII] | 83% and 77% | > 1000 | 0.5 | 9.0 | 15.1 | 10.10 | – | –
7 | O=C(OC(C(Cl)(Cl)Cl)P(=O)(Oc1ccccc1)Oc1ccccc1)c1ccccc1 (stereo not drawn) [VI] | 99% and 98% | > 1000 | 0.5 | 8.5 | 16.4 | 11.30 | – | –
8 | CCCCC(CC)C(=O)OC(C(Cl)(Cl)Cl)P(=O)(Oc1ccccc1)Oc1ccccc1 (stereo not drawn) [V] | 74% and 61% | > 1000 | 0.5 | 13.0 | 14.8 | 9.50 | – | –
9 | CCC(=O)OC(C(Cl)(Cl)Cl)P(=O)(Oc1cccc(C)c1)Oc1cccc(C)c1 (stereo not drawn) [XIII] | 98% and 85% | > 1000 | 0.5 | 10.0 | 16.9 | 12.05 | – | –
10 | CC(=O)OC(C(Cl)(Cl)Cl)P(=O)(Oc1cccc(C)c1)Oc1cccc(C)c1 (stereo not drawn) [XII] | 86% and 68% | > 1000 | 0.5 | 8.0 | 16.1 | 11.00 | – | –
11 | CCCC(=O)OC(C(Cl)(Cl)Cl)P(=O)(Oc1cccc(C)c1)Oc1cccc(C)c1 (stereo not drawn) [XIV] | 99% and 92% | > 1000 | 0.5 | 7.0 | 17.2 | 12.00 | – | –
12 | CCC(=O)OC(C(Cl)(Cl)Cl)P(=O)(Oc1ccc(C)cc1)Oc1ccc(C)cc1 (stereo not drawn) [XIX] | 100% and 66% | > 1000 | 0.5 | 8.0 | 18.9 | 14.60 | – | –
13 | Cc1ccccc1OP(=O)(Oc1ccccc1C)C(OC(=O)c1ccccc1)C(Cl)(Cl)Cl (stereo not drawn) [XI] | – | > 1000 | 0.5 | 8.0 | 17.8 | 12.40 | – | –
14 | CCC(=O)OC(C(Cl)(Cl)Cl)P(=O)(Oc1cccc2ccccc12)Oc1cccc2ccccc12 (stereo not drawn) [XLIII] | 89% and 72% | > 1000 | – | – | – | – | – | –
15 | CC(=O)OC(C(Cl)(Cl)Cl)P(=O)(Oc1cccc2ccccc12)Oc1cccc2ccccc12 (stereo not drawn) [XLII] | 92% and 87% | > 1000 | – | – | – | – | – | –
16 | CCCC(=O)OC(C(Cl)(Cl)Cl)P(=O)(Oc1cccc2ccccc12)Oc1cccc2ccccc12 (stereo not drawn) [XLIV] | 71% | > 1000 | – | – | – | – | – | –
17 | CCC(=O)OC(C(Cl)(Cl)Cl)P(=O)(Oc1ccc(Cl)c(C)c1)Oc1ccc(Cl)c(C)c1 (stereo not drawn) [XLI] | 91% and 53% | > 1000 | – | – | – | – | – | –
18 | CCCC(=O)OC(C(Cl)(Cl)Cl)P(=O)(Oc1ccc(-c2ccccc2)cc1)Oc1ccc(-c2ccccc2)cc1 (stereo not drawn) [XLVIII] | 67% | > 1000 | – | – | – | – | – | –

Row | SMILES | Percentage of injury lowered ([1]; in vivo) | LD50 at 336 h [2] [mg/kg] | Percentage of plants injured with rust, 1-st evaluation [3] [%] | Percentage of plants injured with rust, 2-nd evaluation [3] [%] | Weight of 1,000 grains [3] [g] | Yield [3] [c/ha] | Percentage of injury lowered ([1]; at a concentration of 0.02%, sprayed 3 days before inoculation) [%] | Percentage of injury lowered ([1]; at a concentration of 0.1%, sprayed 3 days before inoculation) [%]
19 | CCC(=O)OC(C(Cl)(Cl)Cl)P(=O)(Oc1ccc(-c2ccccc2)cc1)Oc1ccc(-c2ccccc2)cc1 (stereo not drawn) [XLVII] | – | > 1000 | – | – | – | – | – | –
20 | CC(=O)OC(C(Cl)(Cl)Cl)P(=O)(Oc1ccc(-c2ccccc2)cc1)Oc1ccc(-c2ccccc2)cc1 (stereo not drawn) [XLVI] | – | > 1000 | – | – | – | – | – | –
21 | CCCCCCC(=O)OC(C(Cl)(Cl)Cl)P(=O)(Oc1ccc(-c2ccccc2)cc1)Oc1ccc(-c2ccccc2)cc1 (stereo not drawn) [XLV] | 72% | > 1000 | – | – | – | – | – | –
22 | CC(=O)OC(C(Cl)(Cl)Cl)P(=O)(Oc1ccc(Cl)c(C)c1)Oc1ccc(Cl)c(C)c1 (stereo not drawn) [XL] | 95% and 76% | > 1000 | – | – | – | – | – | –
23 | Cc1cccc(OP(=O)(Oc2cccc(C)c2)C(OC(=O)c2ccccc2)C(Cl)(Cl)Cl)c1 (stereo not drawn) [XVII] | – | > 1000 | – | – | – | – | – | –
24 | CCCCC(CC)C(=O)OC(C(Cl)(Cl)Cl)P(=O)(Oc1cccc(C)c1)Oc1cccc(C)c1 (stereo not drawn) [XVI] | 86% | > 1000 | – | – | – | – | – | –
25 | CCCCCCCCc1ccc(OP(=O)(Oc2ccc(CCCCCCCC)cc2)C(OC(=O)CC)C(Cl)(Cl)Cl)cc1 (stereo not drawn) [XXV] | – | > 1000 | 0.5 | 10.0 | 16.0 | 11.10 | – | –
26 | CCC(=O)OC(C(Cl)(Cl)Cl)P(=O)(Oc1ccc(F)cc1)Oc1ccc(F)cc1 (stereo not drawn) [XXXIII] | 100% and 62% | > 1000 | – | – | – | – | – | –
27 | CC(=O)OC(C(Cl)(Cl)Cl)P(=O)(Oc1ccc(F)cc1)Oc1ccc(F)cc1 (stereo not drawn) [XXXII] | 100% and 84% | > 1000 | – | – | – | – | – | –
28 | CCCC(=O)OC(C(Cl)(Cl)Cl)P(=O)(Oc1ccc(F)cc1)Oc1ccc(F)cc1 (stereo not drawn) [XXXIV] | 99% and 95% | – | 0.5 | 7.4 | 19.6 | 15.10 | – | –
29 | CCC(=O)OC(C(Cl)(Cl)Cl)P(=O)(Oc1ccc(Cl)cc1C)Oc1ccc(Cl)cc1C (stereo not drawn) [XXXIX] | – | > 500 | – | – | – | – | – | –
30 | CC(=O)OC(C(Cl)(Cl)Cl)P(=O)(Oc1ccc(Cl)cc1C)Oc1ccc(Cl)cc1C (stereo not drawn) [XXXVIII] | 92% and 53% | > 500 | – | – | – | – | – | –
31 | O=C(OC(C(Cl)(Cl)Cl)P(=O)(Oc1ccc(F)cc1)Oc1ccc(F)cc1)c1ccccc1 (stereo not drawn) [XXXVII] | – | > 1000 | – | – | – | – | – | –
32 | CCCCC(CC)C(=O)OC(C(Cl)(Cl)Cl)P(=O)(Oc1ccc(F)cc1)Oc1ccc(F)cc1 (stereo not drawn) [XXXVI] | – | > 1000 | – | – | – | – | – | –
33 | CCCCCCC(=O)OC(C(Cl)(Cl)Cl)P(=O)(Oc1ccc(F)cc1)Oc1ccc(F)cc1 (stereo not drawn) [XXXV] | – | > 1000 | – | – | – | – | – | –
34 | CCCCC(CC)C(=O)OC(C(Cl)(Cl)Cl)P(=O)(Oc1ccccc1C)Oc1ccccc1C (stereo not drawn) [X] | – | > 1000 | – | – | – | – | – | –
35 | COP(=O)(OC)C(OC(C)=O)C(Cl)(Cl)Cl (stereo not drawn) [chloracetophos, O,O-dimethyl-1-acetoxy-2,2,2-trichloroethylphosphonate, reference compound] | – | > 1000 | – | – | – | – | 10 | 54
36 | O=P(Oc1ccccc1)(Oc1ccccc1)C(O)C(Cl)(Cl)Cl (stereo not drawn) [reference compound] | 71% and 61% | > 400 | – | – | – | – | – | –
